Results as given in ChEMBL document CHEMBL1201862, “PubChem BioAssay data set” (2004).
The source made the active and inactive calls.

Experiments:
[1] = Luminescence Cell-Based Dose Response HTS to Identify Activators of Luciferase Translation or Activity in H4 […] Cells. [Related pubchem assays: 1829 (Project Summary), 1814 (Primary HTS)]; assay type: functional
[2] = Luminescence Cell-Based Dose Confirmation to Identify Activators of 5'UTR Stem-Loop Driven Alpha-Synuclein mRNA Translation in H4 Neuroglioblastoma Cells. [Related pubchem assays: 1829 (Project Summary), 1814 (Primary HTS)]; assay type: functional
[3] = Luminescence Cell-Based Dose Response to Identify Activators of 5'UTR Stem-Loop Driven Prion Protein mRNA Translation in H4-C Neuroglioblastoma Cells. [Related pubchem assays: 1829 (Project Summary), 1814 (Primary HTS)]; assay type: functional
[4] = molecular target: FAD-linked sulfhydryl oxidase ALR (Homo sapiens, UniProt P55789); experiment: ALR-catalysed DTT oxidation blockers – biochemical, H2O2 detection, luminescence, cherry-pick, dose response (AID 493248)
[5] = molecular target: T1, Rac GTPase-activating protein 1 (Homo sapiens, UniProt Q9H0H5); experiment: blockers of MgcRacGAP-driven Rac1 GTP hydrolysis – biochemical, ADP Hunter fluorescence, primary and confirmatory, confirmation (AID 624330); assay type: functional
T1 sequence (Q9H0H5 whole entry): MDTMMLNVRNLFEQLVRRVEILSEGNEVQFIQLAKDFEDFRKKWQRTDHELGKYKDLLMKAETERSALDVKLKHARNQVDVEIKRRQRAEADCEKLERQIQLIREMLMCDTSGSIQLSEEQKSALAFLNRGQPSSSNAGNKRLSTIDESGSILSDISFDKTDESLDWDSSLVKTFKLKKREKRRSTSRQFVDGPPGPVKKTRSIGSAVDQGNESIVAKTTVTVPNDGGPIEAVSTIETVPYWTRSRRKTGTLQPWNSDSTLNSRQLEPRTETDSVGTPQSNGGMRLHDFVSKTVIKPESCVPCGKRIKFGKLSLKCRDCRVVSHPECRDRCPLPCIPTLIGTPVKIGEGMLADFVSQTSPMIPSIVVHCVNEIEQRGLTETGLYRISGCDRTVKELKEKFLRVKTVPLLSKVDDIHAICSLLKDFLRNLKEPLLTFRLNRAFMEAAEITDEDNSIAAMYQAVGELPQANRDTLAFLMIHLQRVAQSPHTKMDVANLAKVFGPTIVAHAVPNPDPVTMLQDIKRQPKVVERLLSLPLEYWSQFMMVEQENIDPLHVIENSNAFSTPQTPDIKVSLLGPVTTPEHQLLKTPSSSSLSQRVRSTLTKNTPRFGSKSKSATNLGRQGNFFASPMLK

[6] = molecular target: Cyclin-dependent kinase 5/CDK5 activator 1 (Homo sapiens, UniProt Q00535); experiment: blockade of human CDK5 activity – biochemical, cherry-picked samples, set 2, dose response (AID 504545)
[7] = Luminescence Cell-Based Dose Response to Identify Activators of Luciferase Translation or Activity in H4-C Neuroglioblastoma Cells. [Related pubchem assays: 1829 (Project Summary), 1814 (Primary HTS)]; assay type: functional
[8] = system: H4; experiment: Luminescence Cell-Based Dose Response HTS to Identify Activators of 5'UTR Stem-Loop Driven Prion Protein mRNA Translation in H4 Neuroglioblastoma Cells. [Related pubchem assays: 1829 (Project Summary), 1814 (Primary HTS)]; assay type: functional; settings: Homo sapiens
[9] = molecular target: Paired box protein Pax-8 (Homo sapiens, UniProt Q06710); experiment: PAX8 transcriptional activity inhibition in RMG-I – RMG-I cells, luciferase, cherry-pick, dose response (AID 687027); assay type: functional, cell-based;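 also: luciferase reporter driven by Pax8 target thyroperoxidase promoter measured by SteadyGlo luminescence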
[10] = non-specific 3'UTR reporter inhibition in Clone20-Shn3RL – cell-based, Renilla luciferase, cherry-picked, counter-screen for Shn3 inhibitor project, dose response (AID 624133); assay type: functional
[11] = reduction of Shn3 3'UTR-driven luciferase in osteoblasts – cell-based, Clone20 osteoblasts, firefly luciferase, cherry-picked, dose response (AID 624132); assay type: functional;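 also: firefly luciferase luminescence from reporter carrying the Shn3 3'UTR in osteoblasts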
[12] = general cell-killing toxicity readout – plate reader, dry powder samples, cytotoxicity control for PAX8 inhibitor project, dose response (AID 743021); assay type: functional, cell-based
[13] = molecular target: T2, Short transient receptor potential channel 4 (Mus musculus, UniProt Q9QUQ5); experiment: calcium entry via TRPC4 opening agents – cell-based, HEK293 TRPC4/mu-opioid, Fluo-4 calcium, dose response (AID 434937); assay type: functional
T2 sequence (Q9QUQ5 whole entry): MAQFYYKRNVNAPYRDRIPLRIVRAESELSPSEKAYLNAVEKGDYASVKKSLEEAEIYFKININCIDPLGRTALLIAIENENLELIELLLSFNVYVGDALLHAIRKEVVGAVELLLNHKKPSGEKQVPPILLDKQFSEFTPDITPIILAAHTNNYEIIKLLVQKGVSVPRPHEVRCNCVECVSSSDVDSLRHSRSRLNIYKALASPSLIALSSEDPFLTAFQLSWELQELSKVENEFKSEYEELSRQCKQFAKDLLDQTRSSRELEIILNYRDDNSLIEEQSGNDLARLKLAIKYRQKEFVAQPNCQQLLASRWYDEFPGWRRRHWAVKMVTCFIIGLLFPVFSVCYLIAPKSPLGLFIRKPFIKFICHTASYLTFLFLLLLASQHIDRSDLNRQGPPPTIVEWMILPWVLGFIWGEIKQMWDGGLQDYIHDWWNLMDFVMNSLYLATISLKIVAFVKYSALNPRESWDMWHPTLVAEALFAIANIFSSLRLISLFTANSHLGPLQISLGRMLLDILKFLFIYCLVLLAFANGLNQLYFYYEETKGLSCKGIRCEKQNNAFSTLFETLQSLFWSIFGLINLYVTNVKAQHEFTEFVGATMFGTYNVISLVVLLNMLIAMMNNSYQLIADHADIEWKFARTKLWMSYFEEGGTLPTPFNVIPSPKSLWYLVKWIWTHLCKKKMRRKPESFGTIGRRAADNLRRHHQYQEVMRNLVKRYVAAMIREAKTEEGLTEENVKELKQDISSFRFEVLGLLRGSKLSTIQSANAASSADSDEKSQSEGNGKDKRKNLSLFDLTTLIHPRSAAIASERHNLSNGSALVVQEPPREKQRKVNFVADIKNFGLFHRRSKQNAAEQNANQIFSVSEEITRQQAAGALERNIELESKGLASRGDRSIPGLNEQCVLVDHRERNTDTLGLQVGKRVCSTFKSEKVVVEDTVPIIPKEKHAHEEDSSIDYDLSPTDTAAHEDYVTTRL

[14] = system: Vero; experiment: mammalian cell viability reduction – secondary assay, cytotoxicity control for West Nile virus antiviral project, dose response (AID 1650); assay type: functional; settings: Chlorocebus sabaeus
[15] = molecular target: Neurotensin receptor type 1 (Homo sapiens, UniProt P30989); assay type: functional;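 also: Image-based confirmatory dose-response assay measuring agonist activity at NTR1; NTR1-expressing U2OS osteosarcoma cells imaged for beta-arrestin GFP spot formation; agonist potency where compounds increase beta-arrestin recruitment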
[16] = system: INS1; experiment: INS-1E survival protection against cytokine death – cell-based, luminescence, retest, dose response (AID 449756); assay type: functional; settings: Rattus norvegicus;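 also: cell death triggered by IL-1 beta plus TNF-alpha plus IFN-gamma mixture; protective hits raise ATP signal compared with cytokine alone wells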
[17] = system: Vero; experiment: inhibition of WNV-induced cytopathic effect – cell-based, CPE readout (AID 1621); assay type: functional; settings: Chlorocebus sabaeus

Sequence of Neurotensin receptor type 1 (P30989 whole entry): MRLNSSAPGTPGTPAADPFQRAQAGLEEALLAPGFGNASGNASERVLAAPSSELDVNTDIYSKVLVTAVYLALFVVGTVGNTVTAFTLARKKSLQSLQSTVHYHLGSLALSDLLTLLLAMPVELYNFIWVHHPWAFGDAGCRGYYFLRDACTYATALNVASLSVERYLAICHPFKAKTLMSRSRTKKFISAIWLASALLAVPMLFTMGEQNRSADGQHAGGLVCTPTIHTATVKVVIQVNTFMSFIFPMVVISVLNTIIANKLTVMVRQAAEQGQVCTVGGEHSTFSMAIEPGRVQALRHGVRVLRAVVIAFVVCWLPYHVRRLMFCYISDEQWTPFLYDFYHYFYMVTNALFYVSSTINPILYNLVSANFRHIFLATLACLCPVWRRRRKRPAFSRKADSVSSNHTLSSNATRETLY
Sequence of FAD-linked sulfhydryl oxidase ALR (P55789 whole entry): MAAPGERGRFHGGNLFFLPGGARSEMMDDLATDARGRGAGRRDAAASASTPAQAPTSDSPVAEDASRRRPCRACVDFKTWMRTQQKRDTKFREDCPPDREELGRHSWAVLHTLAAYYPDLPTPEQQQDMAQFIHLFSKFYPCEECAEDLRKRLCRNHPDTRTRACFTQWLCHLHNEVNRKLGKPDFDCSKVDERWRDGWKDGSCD
Sequence of Cyclin-dependent kinase 5/CDK5 activator 1 (Q00535 whole entry): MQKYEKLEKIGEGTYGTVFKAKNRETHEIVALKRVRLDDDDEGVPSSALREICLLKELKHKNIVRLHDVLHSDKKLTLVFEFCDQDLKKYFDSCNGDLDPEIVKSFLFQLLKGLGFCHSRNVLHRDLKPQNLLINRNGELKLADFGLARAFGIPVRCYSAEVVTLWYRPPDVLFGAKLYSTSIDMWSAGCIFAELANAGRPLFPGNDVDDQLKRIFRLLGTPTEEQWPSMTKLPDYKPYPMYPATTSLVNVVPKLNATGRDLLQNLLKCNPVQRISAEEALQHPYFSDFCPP
Sequence of Cyclin-dependent kinase 5/CDK5 activator 1 (Q15078 whole entry, further chain): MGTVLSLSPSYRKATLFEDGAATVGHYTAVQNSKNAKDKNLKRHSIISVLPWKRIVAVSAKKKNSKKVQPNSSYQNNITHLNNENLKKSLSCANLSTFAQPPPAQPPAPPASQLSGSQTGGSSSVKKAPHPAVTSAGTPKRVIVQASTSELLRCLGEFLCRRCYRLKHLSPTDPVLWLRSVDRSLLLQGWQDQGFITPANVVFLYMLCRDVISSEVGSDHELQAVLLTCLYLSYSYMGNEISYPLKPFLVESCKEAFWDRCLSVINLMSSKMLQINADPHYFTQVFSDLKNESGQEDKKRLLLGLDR
Sequence of Paired box protein Pax-8 (Q06710 whole entry): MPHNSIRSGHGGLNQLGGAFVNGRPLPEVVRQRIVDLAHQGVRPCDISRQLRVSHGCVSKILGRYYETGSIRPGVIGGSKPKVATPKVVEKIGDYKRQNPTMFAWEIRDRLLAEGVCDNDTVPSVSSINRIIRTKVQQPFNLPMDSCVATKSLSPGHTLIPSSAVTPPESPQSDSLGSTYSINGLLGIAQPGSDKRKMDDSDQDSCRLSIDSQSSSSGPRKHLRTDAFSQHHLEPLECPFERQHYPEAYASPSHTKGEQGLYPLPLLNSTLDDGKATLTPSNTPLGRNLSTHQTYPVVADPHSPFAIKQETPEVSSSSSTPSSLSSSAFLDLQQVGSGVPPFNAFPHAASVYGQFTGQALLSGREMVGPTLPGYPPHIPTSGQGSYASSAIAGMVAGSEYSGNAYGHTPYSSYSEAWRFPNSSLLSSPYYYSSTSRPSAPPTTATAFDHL

Row | SMILES | EC50 [1] | EC50 [2] | EC50 [3] | AC50 [4] | IC50 [5] | AC50 [6] | EC50 [7] | EC50 [8] | AC50 [9] | AC50 [10] | AC50 [11] | AC50 [12] | EC50 [13] | CC50 [14] | EC50 [15] | AC50 [16] | IC50 [17]
1 | Oc1ccc(/C=N/Nc2ccc(C(F)(F)F)cn2)cc1 | < 100 nM (inconclusive) | 350 nM (active) | 998 nM (active) | 37.5 µM (active) | 28.9 µM (active) | 19.9 µM (active) | 329 nM (active) | > 120 µM (not active) | – | – | – | – | – | – | – | – | –
2 | CC[C@@H](C(=O)[C@@H](C)[C@@H](O)[C@H](C)CCc1ccc(C)c(O)c1C(=O)O)[C@H]1O[C@](CC)([C@H]2CC[C@](O)(CC)[C@H](C)O2)C[C@@H]1C [LASALOCID A SODIUM] | – | – | – | – | – | – | – | – | 3.52 µM (active) | 8.23 µM (active) | 7.93 µM (active) | 40.7 µM (active) | 5.96 µM (active) | 19.4 µM (active) | 30.5 µM (inactive) | 2.64 µM (active) | 8.3 µM (active)
